Results on eight molecules are retold here after patent publication US20230048512A1, “COCRYSTALS OF PTEROSTILBENE AND COMPOSITIONS COMPRISING THEM” (CENTER FOR INTELLIGENT RESEARCH IN CRYSTAL ENGINEERING, S.L., priority 2019, published 2023).

Data set [1] in a line: Dissolution rate of tablets of the solid forms in FaSSIF v2 (small-scale dissolution assay, UV quantification, Noyes-Whitney fit). The class given is physicochemical. The settings on record: FaSSIF v2 (pH 6.5), 25° C., 120 minutes, 3 mm tablet. As to the method:
1. Molar Extinction Coefficient (MEC) determination in FaSSIF v2 medium
Molar extinction coefficients of pterostilbene and of each coformer were determined by UV-metric titration using a GlpKaTM titrator (Sirius Analytical Instruments, UK). Briefly, a 10 mM stock solution of sample was prepared in DMSO. […] of sample stock solution and 0.25 mL of a 15 mM potassium phosphate buffer were added to 10 mL of a 0.15 M KCI solution, which in turn contained 17.9 mg of FaSSIF v2 powder. The pH of the sample solution was adjusted to 2 with 0.5 M HCI before starting the titration, and then the titration was done using 0.5 M KOH up to pH 12. The UV absorption spectra (between 250 and 450 nm) of the solution were recorded at each titrant addition by a fiber optic dip-probe. The collected data were refined through the RefinamentPro software, and the pKa values and Molar Extinction Coefficients obtained by Target Factor Analysis.
2. Dissolution Rate experiments • Tablet production: tablets of 3 mm diameter were prepared using a manual hydraulic tablet press (Applied Measurements Ltd, UK). The applied pressure was 100 Kg for 2 min. From 10 to 15 mg of each solid form, pterostilbene or cocrystal, were weighted. The total exposed surface area was 0.5 cm^2. • Medium: FaSSIF v2 (pH 6.5), with corresponding amount of phosphoric (28.4 mM) acid instead of maleic acid. • Dissolution tests were performed with a small-scale dissolution assay installed in a GlpKaTM titrator (Sirius Analytical Instruments, UK). • Dissolution time and temperature: 120 minutes and 25° C. • Procedure: 15 mL of FaSSIF v2 was added into the sample vial containing the tablet. Spectra collection started immediately after. Spectra were recorded every 30 seconds between 250 and 450 nm through a Sirius D-PAS spectrometer with a bifurcated optic fibre dip probe (Hellma Analytics). The medium was stirred at a constant rate.
The concentration of pterostilbene in solution at each time point is determined from the spectroscopic data by applying the Beer-Lambert law, using previously determined molar extinction coefficients of pure pterostilbene. Spectrum regions where signal is saturated (A>1.5) or presenting medium interferences were discarded. Then, the concentration data were converted into absolute sample quantities, and used to generate the graphs showing the sample quantity vs. time.
4. Determination of the dissolution rate
Dissolution rate is obtained through the fit of the first order Noyes-Whitney exponential equation to the data: […]
In this equation, [X]t is the weight in grams of compound in solution at the experiment time (min); S is the extrapolated solubility (g) of pterostilbene; kd is the rate constant for dissolution (min^−1); and to (min) is a term allowing for a temporal offset. Results are calculated using a refinement process in which S, kd and t0 are varied in order to minimize the root mean square deviation between the modelled concentrations and the measured concentrations. The dissolution rate (g min^−1) is given by the product kdS (T. Gravestock et al., 2011).

Data set [2] in a line: Pharmacokinetics of pterostilbene in rat plasma after single oral administration. Type of data set: in vivo, Male Sprague-Dawley rats. The settings on record: for Plasma concentration of pterostilbene, Mean (arithmetic) / Plasma concentration of pterostilbene, individual animals 1-5: 20 mg/kg P56-VIII (13.5 mg/kg as pterostilbene) single oral. As to the method:
In-life phase • Animals: Male Sprague-Dawley rats (weight: 417.9-458.6 g) • Administration: Oral (single dose) • Dose: 20 mg/kg P56 (pterostilbene, free base) 20 mg/kg P56-VIII (cocrystal of pterostilbene and picolinic acid; 13.5 mg/kg as pterostilbene free base) • Formulation: Suspension (0.5% carboxymethylceluulose, CMC) • Adm. volume: 10 ml/kg • Fed/fasted state: Fasted (at least 8 hours prior dosing) • Sampling: Six blood samples/animal (1, 2, 4, 6, 8 and 24 hours post-adm.) • Plasma samples: Plasma samples using K3-EDTA as anticoagulant.
Samples were immediately frozen at −80° C. until their analysis
Pharmacokinetic analysis was performed by non-compartmental pharmacokinetic analysis using Kinetica v5 software (Alfasoft Limited, Luton, UK). Descriptive statistics was performed using Microsoft Excel spreadsheet 2007 (Microsoft Inc, Redmond, US). Plasma bioanalysis was made by LC-MS/MS.
Concentration values below the lower limit of quantification (BLQ) were set to zero, whereas missing concentration values were not considered for statistical and pharmacokinetic evaluations. All computations used the nominal sampling times, nominal doses and concentrations levels were expressed as free base. The numerical data presented below were computer generated. Because of rounding, recalculation of derived values from individual data presented herein below could, in some instances, yield minor variation.
The area under the plasma concentration-time curve from 0 to t (AUC0-t) was determined by using the trapezoidal rule. […] The terminal half-life was determined according to the following rules: (a) time interval equal to at least 1.5 x t1/2, (b) regression analysis (straight line on the log-transformed scale) contained data from at least 3 different time points in the terminal phase and as many data points as possible (always including the last quantifiable concentration but excluding the Cmax), and (c) the coefficient of determination (r^2) was ≥0.85. If at least one of these three conditions was not fulfilled, the terminal half-life and the parameters depending on t1/2 were listed but flagged as not reliably calculated. If the percentage of extrapolated AUC was more than 20%, the individual AUCinf result were listed but flagged as not reliably calculated. Flagged parameters were not included in descriptive statistics and statistical testing procedures.

[3] abbreviates: 20 mg/kg P56-VIII (13.5 mg as pterostilbene) single oral, fasted male SD rats.
The mark [4] stands for this setting: 20 mg/kg cocrystal (13.5 mg/kg as pterostilbene) vs 20 mg/kg P56, single oral, rats.

The structures appear in SMILES notation. Several values for one entry are separate records, joined by “and”; a condition that tells them apart may be missing. Equal values may be shown once.

`COc1cc(/C=C/c2ccc(O)cc2)cc(OC)c1` [Pterostilbene (Form VI), Form VI of pterostilbene] showed a dissolution rate in data set [1] of 7.4 ± 1.8 nmol/min.

`COc1cc(/C=C/c2ccc(O)cc2)cc(OC)c1.Cn1c(=O)c2c(ncn2C)n(C)c1=O` [Pterostilbene:caffeine cocrystal, reference compound]: the dissolution rate in data set [1] came out at 45.4 ± 9.2 nmol/min.

Turning to `COc1cc(/C=C/c2ccc(O)cc2)cc(OC)c1.COc1cc(/C=C/c2ccc(O)cc2)cc(OC)c1.NCCN` [Pterostilbene:ethylendiamine cocrystal, pterostilbene:ethylendiamine cocrystal (2:1)], the dissolution rate in data set [1] turned out to be 176.1 ± 12.6 nmol/min.

In the case of `COc1cc(/C=C/c2ccc(O)cc2)cc(OC)c1.ClCCl.Cn1c(=O)c2[nH]cnc2n(C)c1=O` [Pterostilbene:theophylline cocrystal, cocrystal solvate of pterostilbene:theophylline: dichloromethane (1:1:1)], the dissolution rate in data set [1] is 33.5 ± 6.7 nmol/min.

Molecule `COc1cc(/C=C/c2ccc(O)cc2)cc(OC)c1.COc1cc(/C=C/c2ccc(O)cc2)cc(OC)c1.Cc1cnc(C)c(C)n1` [cocrystal of pterostilbene:2,3,5-trimethylpirazine (2:1)] came in with a dissolution rate in data set [1] of 52.0 ± 5.8 nmol/min.

Take `COc1cc(/C=C/c2ccc(O)cc2)cc(OC)c1.O=C(O)c1ccccn1` [cocrystal of pterostilbene:picolinic acid (1:1)]: the dissolution rate in data set [1] came to 427.8 ± 29.5 nmol/min. Moreover, in data set [2] (setting [3]), the “AUC0-t, Mean” value came to 4699 ng·h/mL; the “AUC0-t, individual animals 1-5” value was 4384 ng·h/mL and 3776 ng·h/mL and 4059 ng·h/mL and 9824 ng·h/mL and 1452 ng·h/mL; the “AUCinf, Mean” value is 4772 ng·h/mL; the “AUCinf, individual animals 1-5” value is 4422 ng·h/mL and 3805 ng·h/mL and 4178 ng·h/mL and 9855 ng·h/mL and 1602 ng·h/mL. In addition, in data set [2] (setting [3]), the “Cmax, Mean” value was determined as 567.8 ng/mL; the “Cmax, individual animals 1-5” value was 695.2 ng/mL and 337.4 ng/mL and 513.3 ng/mL and 991.8 ng/mL and 301.1 ng/mL; the “t1/2 (terminal elimination half-life), Mean” value is reported as 3.3 h; the “t1/2 (terminal elimination half-life), individual animals 1-5” value is 3.7 h and 3.2 h and 5.1 h and 2.8 h and 1.9 h. In addition, in data set [2] (setting [3]), the “tmax, Median” value came to 2 h; the “tmax, individual animals 1-5” value was 1 h and 6 h and 4 h and 2 h. Also, in data set [2] (fasted male SD rats, 1 h), the “Plasma concentration of pterostilbene, Mean (arithmetic)” value (from here on “Plasma concentration … (arithmetic)”) is 504.7 ng/mL; the “Plasma concentration of pterostilbene, individual animals 1-5” value was 513.3 ng/mL and 980.0 ng/mL and 189.8 ng/mL and 695.2 ng/mL and 145.5 ng/mL. In addition, in data set [2] (fasted male SD rats, 2 h), the “Plasma concentration … (arithmetic)” value turned out to be 514.3 ng/mL; the “Plasma concentration of pterostilbene, individual animals 1-5” value is 462.8 ng/mL and 952.8 ng/mL and 301.1 ng/mL and 587.9 ng/mL and 266.9 ng/mL. Besides, in data set [2] (fasted male SD rats, 4 h), the “Plasma concentration … (arithmetic)” value is 451.7 ng/mL; the “Plasma concentration of pterostilbene, individual animals 1-5” value was 262.6 ng/mL and 991.8 ng/mL and 224.7 ng/mL and 538.5 ng/mL and 240.8 ng/mL. Further, in data set [2] (fasted male SD rats, 6 h), the “Plasma concentration … (arithmetic)” value worked out at 305.6 ng/mL; the “Plasma concentration of pterostilbene, individual animals 1-5” value was 150.6 ng/mL and 663.7 ng/mL and 153.8 ng/mL and 222.5 ng/mL and 337.4 ng/mL. In data set [2] (fasted male SD rats, 8 h), the “Plasma concentration … (arithmetic)” value came to 214.8 ng/mL; the “Plasma concentration of pterostilbene, individual animals 1-5” value was 210.5 ng/mL and 449.2 ng/mL and 53.5 ng/mL and 136.4 ng/mL and 224.6 ng/mL. The “Plasma concentration … (arithmetic)” value in data set [2] (fasted male SD rats, 24 h) was determined as 7.54 ng/mL. In addition, the “Plasma concentration of pterostilbene, individual animals 1-5” value in data set [2] (fasted male SD rats, 24 h, BLQ = <5 ng/ml) was 16.4 ng/ml and 7.67 ng/ml and BLQ and 7.16 ng/ml and 6.50 ng/ml. In data set [2] (setting [4]), the “increase in AUCinf compared to the P56 formulation” value is reported as “about 10 fold” and the “increase in Cmax compared to the P56 formulation” value was “around 6 fold”.

Regarding `COc1cc(/C=C/c2ccc(O)cc2)cc(OC)c1.COc1cc(/C=C/c2ccc(O)cc2)cc(OC)c1.O=C(O)c1ccccn1` [cocrystal of pterostilbene:picolinic acid (2:1)], the dissolution rate in data set [1] is given as 351.3 ± 18.9 nmol/min.

For `COc1cc(C=Cc2ccc(O)cc2)cc(OC)c1.COc1cc(C=Cc2ccc(O)cc2)cc(OC)c1.NCCN.O.O` [pterostilbene:ethylendiamine:H2O cocrystal hydrate (2:1:2)], the dissolution rate in data set [1] is given as 230.4 ± 26.59 nmol/min.
